The values below are quoted from earlier work in patent US4196187A, “Rumen-stable pellets” (Eastman Kodak Company, priority 1977, dated 1980).

The conditions of data set [1]: Example 1.

In the case of `Cl.NCCCC[C@H](N)C(=O)O` [L-Lysine monohydrochloride], where the note is “25° C., water”, the “soluble to the extent of” value is given as “about 70 g./100 g. of water”. The “acidity of a saturated solution (pH)” value in data set [1] was 5.5.

Take `CSCCC(N)C(=O)O` (racemic) [DL - Methionone]: the “Solubility g./100 g. water at 25° C.” value is listed as 4.0 g./100 g. water.
